In PubChem BioAssay AID1963853 (Molecular Pharmacology Branch, DTP, NCI, 2024):

System: 266295-075-R-J1-PDC spheroid viability
Assay: Anticancer human tumor 266295-075-R-J1-PDC patient-derived head and neck squamous carcinoma cell line growth inhibition [POLQ]
Settings: spheroids with HUVEC and MSC; for IC50: curve of first compound; for viability, T/C: stronger effect = lower value; active means viability on the fitted dose curve at most 10% of control; inactive means the rest
Summary of the method: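 Growth inhibition in 3D: complex spheroids (tumor PDC, HUVEC, MSC) treated with POLQ inhibitor combinations; where Cmax unknown, highest tested concentration 10 microM, except SN-38 at 1 microM.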

[1] = second compound 0.0316 µM, first compound 0.0316 µM
[2] = second compound 0.0316 µM, first compound 0.1 µM
[3] = second compound 0.0316 µM, first compound 0.316 µM
[4] = second compound 0.0316 µM, first compound 1 µM
[5] = second compound 0.0316 µM, first compound 3.16 µM
[6] = second compound 0.0316 µM, first compound 10 µM
[7] = second compound 0.1 µM, first compound 0.0316 µM
[8] = second compound 0.1 µM, first compound 0.1 µM
[9] = second compound 0.1 µM, first compound 0.316 µM
[10] = second compound 0.1 µM, first compound 1 µM
[11] = second compound 0.1 µM, first compound 3.16 µM
[12] = second compound 0.1 µM, first compound 10 µM
[13] = second compound 0.316 µM, first compound 0.0316 µM
[14] = second compound 0.316 µM, first compound 0.1 µM
[15] = second compound 0.316 µM, first compound 0.316 µM
[16] = second compound 0.316 µM, first compound 1 µM
[17] = second compound 0.316 µM, first compound 3.16 µM
[18] = second compound 0.316 µM, first compound 10 µM
[19] = second compound 1 µM, first compound 0.0316 µM
[20] = second compound 1 µM, first compound 0.1 µM
[21] = second compound 1 µM, first compound 0.316 µM
[22] = second compound 1 µM, first compound 1 µM
[23] = second compound 1 µM, first compound 3.16 µM
[24] = second compound 1 µM, first compound 10 µM
[25] = second compound 3.16 µM, first compound 0.0316 µM
[26] = second compound 3.16 µM, first compound 0.1 µM
[27] = second compound 3.16 µM, first compound 0.316 µM
[28] = second compound 3.16 µM, first compound 1 µM
[29] = second compound 3.16 µM, first compound 3.16 µM
[30] = second compound 3.16 µM, first compound 10 µM
[31] = second compound 10 µM, first compound 0.0316 µM
[32] = second compound 10 µM, first compound 0.1 µM
[33] = second compound 10 µM, first compound 0.316 µM
[34] = second compound 10 µM, first compound 1 µM
[35] = second compound 10 µM, first compound 3.16 µM
[36] = second compound 10 µM, first compound 10 µM
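Further: spheroids exposed to compounds for seven days before readout.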

CC1COCCN1c1cc(C2(S(C)(=N)=O)CC2)nc(-c2ccnc3[nH]ccc23)n1 (centres undefined) + Nc1ccc(C#CCN(C(=O)Cc2ncc(C(F)(F)F)cc2C(F)(F)F)c2ccc(F)cc2)nn1
> 10 µM: IC50 (second compound 0.0316 µM) | IC50 (second compound 0.1 µM) | IC50 (second compound 3.16 µM) | IC50 (second compound 10 µM)
9.41 µM: IC50 (second compound 1 µM)
8.58 µM: IC50 (second compound 0.316 µM)
inactive: viability, T/C [1] 110% | viability, T/C [2] 93.3% | viability, T/C [3] 83.4% | viability, T/C [4] 75.5% | viability, T/C [5] 67.5% | viability, T/C [6] 63% | viability, T/C [7] 102% | viability, T/C [8] 116% | viability, T/C [9] 92% | viability, T/C [10] 93.9% | viability, T/C [11] 80.2% | viability, T/C [12] 57.2% | viability, T/C [13] 81.9% | viability, T/C [14] 102% | viability, T/C [15] 92.5% | viability, T/C [16] 79% | viability, T/C [17] 78.4% | viability, T/C [18] 45.6% | viability, T/C [19] 97.8% | viability, T/C [20] 109% | viability, T/C [21] 96.6% | viability, T/C [22] 87.6% | viability, T/C [23] 67.6% | viability, T/C [24] 48.9% | viability, T/C [25] 89.9% | viability, T/C [26] 141% | viability, T/C [27] 100% | viability, T/C [28] 92.8% | viability, T/C [29] 69.4% | viability, T/C [30] 57.3% | viability, T/C [31] 95.4% | viability, T/C [32] 99% | viability, T/C [33] 95.5% | viability, T/C [34] 92.7% | viability, T/C [35] 70.6% | viability, T/C [36] 62.9%

O=C(c1cc(Cc2n[nH]c(=O)c3ccccc23)ccc1F)N1CCN(C(=O)C2CC2)CC1 + Nc1ccc(C#CCN(C(=O)Cc2ncc(C(F)(F)F)cc2C(F)(F)F)c2ccc(F)cc2)nn1
inactive: viability, T/C [1] 105% | viability, T/C [2] 103% | viability, T/C [3] 115% | viability, T/C [4] 94.1% | viability, T/C [5] 108% | viability, T/C [6] 89% | viability, T/C [7] 96.6% | viability, T/C [8] 88.2% | viability, T/C [9] 97.6% | viability, T/C [10] 92.9% | viability, T/C [11] 105% | viability, T/C [12] 89.5% | viability, T/C [13] 124% | viability, T/C [14] 92.8% | viability, T/C [15] 77.1% | viability, T/C [16] 100% | viability, T/C [17] 80.6% | viability, T/C [18] 99.4% | viability, T/C [19] 90.1% | viability, T/C [20] 106% | viability, T/C [21] 91.9% | viability, T/C [22] 97.7% | viability, T/C [23] 85.7% | viability, T/C [24] 87% | viability, T/C [25] 92.7% | viability, T/C [26] 83.9% | viability, T/C [27] 91% | viability, T/C [28] 106% | viability, T/C [29] 106% | viability, T/C [30] 98.4% | viability, T/C [31] 110% | viability, T/C [32] 99.7% | viability, T/C [33] 96.3% | viability, T/C [34] 97.7% | viability, T/C [35] 77% | viability, T/C [36] 81.8%
> 10 µM: IC50 (second compound 0.0316 µM) | IC50 (second compound 0.1 µM) | IC50 (second compound 0.316 µM) | IC50 (second compound 1 µM) | IC50 (second compound 3.16 µM) | IC50 (second compound 10 µM)
